Laboratory results as given in ChEMBL document CHEMBL1159253, “Two new cytotoxic monotetrahydrofuran Annonaceous acetogenins, annomuricins A and B, from the leaves of Annona muricata” (J Nat Prod, 1995).
Converted amounts (≈) assume the structure as drawn.

What was measured:
[1] = test system: A549; test: Cytotoxicity against human A549 cells after 7 days by MTT assay; type: functional; settings: for EC50: Homo sapiens, A549, 168 h, read-out: ED50 (the source's name)
[2] = Toxicity against brine shrimp; type: organism-based; settings: artemia, in vivo
[3] = test system: HT-29; test: Cytotoxicity against human HT-29 cells after 7 days by MTT assay; type: functional; settings: HT-29, 168 h, read-out: ED50 (the source's name)
[4] = test system: MCF7; test: Cytotoxicity against human MCF7 cells after 7 days by MTT assay; type: functional; settings: for EC50: Homo sapiens, MCF7, 168 h, read-out: ED50 (the source's name)

| SMILES | ED50 [1] [×10⁻⁴ ug/ml] | LC50 [2] [µg/mL] | EC50 [3] [µg/mL] | ED50 [4] [×10⁻⁴ ug/ml] | EC50 [1] [µg/mL] | EC50 [4] [µg/mL] |
| --- | --- | --- | --- | --- | --- | --- |
| CCCCCCCCCCCC[C@H](O)[C@H]1CC[C@H]([C@H](O)CCC[C@@H]2OC(C)(C)O[C@@H]2CCCCC[C@@H](O)CC2=C[C@H](C)OC2=O)O1 | 3.41 | 0.18 (≈ 0.276 µM) | 0.0933 (≈ 0.143 µM) | 1.41 | – | – |
| CCCCCCCCCCCC[C@H](O)[C@H]1CC[C@H]([C@H](O)CCC[C@H](O)[C@H](O)CCCCC[C@@H](O)CC2=C[C@H](C)OC2=O)O1 [ANNOMURICIN B] | – | 0.687 (≈ 1.12 µM) | 0.435 (≈ 0.71 µM) | – | 0.159 (≈ 0.259 µM) | > 1 |
| CCCCCCCCCCCC[C@H](O)[C@H]1CC[C@H]([C@H](O)CCC[C@H]2OC(C)(C)O[C@@H]2CCCCC[C@@H](O)CC2=C[C@H](C)OC2=O)O1 | 1.58 | 0.131 (≈ 0.201 µM) | > 1 | 2.78 | – | – |
| COc1cccc2c1C(=O)c1c(O)c3c(c(O)c1C2=O)C[C@@](O)(C(=O)CO)C[C@@H]3O[C@H]1C[C@H](N)[C@H](O)[C@H](C)O1 [DOXORUBICIN] | – | – | 0.0275 (≈ 0.0506 µM) | – | 0.0101 (≈ 0.0186 µM) | 0.126 (≈ 0.232 µM) |
| CCCCCCCCCCCC[C@H](O)[C@H]1CC[C@H]([C@H](O)CCC[C@@H](O)[C@H](O)CCCCC[C@@H](O)CC2=C[C@H](C)OC2=O)O1 [ANNOMURICIN A] | – | 0.625 (≈ 1.02 µM) | > 1 | – | 0.33 (≈ 0.538 µM) | > 1 |
